# Measurements as given in US10682386B2, “Compositions for prevention of adhesions and other barrier applications” (Arch Biosurgery, Inc., priority 2006, dated 2020).
# Tests used:
# [1] = test system: intestine at the level of the duodenum; test: Perforation of the intestine at the level of the duodenum, leakage of gastric fluid; type: in vivo, adult rat
# Method: An additional volume of 2% peptide solution was injected into the duodenum at the level of the injury. […] In the control cut at the level of the duodenum, the wall of the intestine inverted and gastric fluids continued to leak from the site of injury when left untreated.
# spinotrapezius muscles = test: Muscle trauma, cut in spinotrapezius muscle on the back, hemostasis; type: in vivo, rat; details: 1% peptide solution applied in deep cut, 1-2 cm incisions
# Excerpt: The spinotrapezius muscles on the back of the rats were exposed and a deep cut was made in the muscle, after which 1% peptide solution (RADA16-I) (SEQ ID NO: 1) was applied in the cut. Within 10 seconds, all bleeding had stopped. With the application of iced saline alone, control animals continued to bleed after 20 seconds.
# [2] = test system: branch of the superior sagittal sinus in the brains; test: Transection of a branch of the superior sagittal sinus in the brain, hemostasis; type: in vivo, rats
# Method: (§1) Animals were anesthetized with an i.p. injection of ketamine (80 mg/kg) and xylazine (8 mg/kg). All surgical procedures were conducted under an operating microscope. Twenty-two animals, including 10 adult hamsters and 12 young adult female Spraque-Dawley rats (200-250 g), were treated with either iced saline or 20 μl of a 1% peptide solution at the site of the sinus branch transection. The material was prepared by dissolving RADA 16-1 (n-RADARADARADARADA-c; SEQ ID NO: 1) peptide in sterile water, and the peptide-containing solution was applied to the injured tissue with a 31 gauge needle attached to a 2 cc syringe.
# (§2) The experiment was videotaped with a time stamp and was replayed one frame at a time to evaluate the length of time required for the peptide solution to form a gel, which effectively impeded bleeding. Hemostasis was assessed visually, and “complete hemostasis” was defined as the complete lack of movement of blood from the wound site.
# Durations were measured from the start of application of peptide solution to the completion of hemostasis after transection of the veins leading to the sinus in the brains of adult rats. […] In the saline controls, cessation of bleeding was never achieved. The saline control experiment was terminated at the same time point in order to prevent the animals from bleeding to death.
# [3] = test system: liver, lobus sinister lateralis and a major branch of the portal vein; test: Liver transverse cut with major branch of the portal vein, higher pressure, hemostasis; type: in vivo, rat
# Method: A series of pictures illustrate the experiment. […] The cut was treated with 4% peptide solution applied topically and in the cut. All bleeding stopped within 10 seconds. […] Thus, application of 4% peptide solution brings about complete hemostasis in a high pressure bleeding environment in less than 10 seconds. […] This procedure was repeated several times with the same result.
# liver = test: 4 mm liver punch biopsy, adhesions; type: in vivo, adult rats; details: punch filled with 3%; survival 2 d, 7 d, 14 d, 6 w, 8 w
# Method: The liver of 18 adult rats was exposed under deep anesthesia, the upper right lobe was punched by a 4 mm punch, then the wound was treated with 3% NHS-1. Animals were allowed to survive 2 d, 7 d, 14 d, 6 w, and 8 w respectively, then the animals were anesthetized again and the punched lobe of liver was dissected and processed for H&E staining. In addition a set of controls were treated with either saline or cautery. 4 mm liver punch biopsy experiment with control and filling of punch with 3% RADA. All of the controls had adhesions on both surfaces while the treated had no adhesions. In the 2 week, 6 week and 8 week controls adhesions were cut away on the upper and lower surfaces. On all the 3% RADA treated cases there were no adhesions on with the upper or lower surface of the liver.
# [4] = test system: liver, lobus sinister lateralis; test: Liver cut, rostral to caudal, vessel of relatively low pressure, hemostasis; type: in vivo, adult rat; details: 1% peptide solution applied topically and in the cut
# Excerpt: Profuse bleeding ensued. A 1% peptide solution (RADA16-1) (SEQ ID NO: 1) was applied to the cut and in its vicinity using a 27 gauge needle and 4 cc syringe. All bleeding stopped within 10 seconds. A series of pictures was obtained. […] After treating the site with 1% peptide solution (applied topically and in the cut), all bleeding stopped within 10 seconds. A clear area was observed between the two halves of the lobus sinister lateralis. This procedure was repeated several times with the same result.
# superior sagittal sinus = test: Complete transection of the superior sagittal sinus, hemostasis; type: in vivo; details: control animals that continued to bleed after 20 seconds
# Excerpt: A higher concentration of peptide (e.g., approximately 3%-4%) was used in the latter experiment in order to achieve hemostasis. The three saline control cases continued to bleed after 20 seconds.
# [5] = test system: lobus sinistras laterialis of the liver; test: Removal of ¼ of the liver lobe, topical treatment of the margin, hemostasis; type: in vivo
# Method: In other experiments ¼ of the lobe in the lower right quadrant of the lobus sinistras laterialis was removed, and the margin was treated with a topical application of 2% peptide (RADA16-I) (SEQ ID NO: 1) to the site of injury. Bleeding stopped in less than 10 seconds.
# femoral artery = test: Femoral artery transection, hemostasis; type: in vivo, adult rats
# Method: The sciatic nerve and the adjacent femoral artery were exposed in adult rats, and the femoral artery was transected. Twelve rats were treated by application of 20 μl of a 1% solution of RADA 16-I (SEQ ID NO: 1) peptide to the site of transection using a glass pipette attached to a syringe body, while controls were treated by applying cold saline to the site of transection. […] The saline control cases continued to bleed until the experiment was terminated at 110 seconds.
# A series of pictures was taken in an adult rat in which the femoral artery was transected. In the picture taken first, the sciatic nerve and the femoral artery are exposed. […] The assembled material can be suctioned off the site easily if desired.
# [6] = test system: muscle of the hind limb (porteocaudalis and musculus tibialis cranialis); test: Muscle trauma, hind limb muscle and limb wounds, hemostasis; type: in vivo, rat
# Excerpt: The spinotrapezius muscles on the back of the rats were exposed and a deep cut was made in the muscle, after which 1% peptide solution (RADA16-I) (SEQ ID NO: 1) was applied in the cut. Within 10 seconds, all bleeding had stopped. With the application of iced saline alone, control animals continued to bleed after 20 seconds. […] However when an artery or vein was transected 2% or higher material was needed to bring about hemostasis. […]
# [7] = test system: skin and subcutaneous tissue; test: 4 mm punch biopsy of skin and subcutaneous tissue, healing test; type: in vivo
# Method: The regions from which the biopsies were taken were either treated by a single application of self-assembling peptide (RADA16-I) (SEQ ID NO: 1) solution or were left untreated. The wounds were left unbandaged. A series of pictures of a 4 mm punch biopsy healing test in which injured animals were treated with the self assembling peptide and compared to matching cases with no treatment illustrates the results. The wounds were photographed on day 0, day 1, day 4, and day 7. […] Treatment with the peptide appeared to speed healing by as much as 5 days in some cases.
# [8] = test system: branch of the superior sagittal sinus in the brains; test: Transection of a branch of the superior sagittal sinus in the brain, hemostasis; type: in vivo; details: hamsters; 20 μl of a 1% peptide solution at the site of the sinus branch transection; all cases
# Method: as §1, §2
substance,measurement,setting,value
n-RADARADARADARADA-c [RADA16-I],progression of the intestinal wall inversion,[1]; control cut treated 15 minutes after the injury,stopped the progression
same,leakage from the injury site,[1]; control cut treated with peptide solution 15 minutes after the injury,stopped all leakage
same,leakage of gastric fluids from the intestine,[1]; site treated with 2% peptide solution,all leakage of gastric fluids from the intestine stopped
same,time until all bleeding had stopped,spinotrapezius muscles,≤ 10 s
same,hemostasis five seconds after the peptide solution was applied,"[2]; adult rat, one of the veins of the superior sagittal sinus transected, series of pictures",Complete hemostasis was achieved
same,average duration from start of application of peptide solution to completion of hemostasis,"[2]; adult rats, transection of the veins leading to the sinus",8.3 s
same,time to complete hemostasis after application of the peptide solution,"[2]; rats, 20 μl of a 1% peptide solution at the site of the sinus branch transection, all cases",≤ 10 s
same,hemostasis,[3]; 1% solution,partial cessation of bleeding
same,hemostasis,[3]; 2% peptide solution,complete hemostasis was also achieved
same,hemostasis,[3]; 3% peptide solution,complete hemostasis was also achieved
same,bleeding ten minutes later,[3]; 4% peptide solution,still no bleeding
same,bleeding under physical stress (lower part of lobe pulled downward),[3]; 4% peptide solution,did not bleed
same,hemostasis after excess peptide structure was wiped away,[3]; 30 seconds after treatment,hemostasis was maintained
same,adhesions on the upper or lower surface of the liver,liver,no adhesions
same,time until all bleeding stopped,[4],≤ 10 s
same,hemostasis after iced saline was removed and the peptide solution was applied,superior sagittal sinus,complete hemostasis almost immediately
same,hemostasis at the margin of the liver after the peptide was removed,"[5]; 2% peptide, removed one minute later",complete hemostasis was achieved
same,time until bleeding stopped,[5]; topical application of 2% peptide to the margin,less than 10 seconds
same,time to hemostasis,"femoral artery; 20 μl of a 1% solution at the site of transection, twelve rats, all treated cases",less than 10 seconds
same,time at which complete hemostasis was observed,"femoral artery; adult rat, series of pictures",about five
same,hemostasis after replacement of the cold saline with the peptide solution,femoral artery; control animals that bled until 110 seconds,almost immediate achievement of complete hemostasis
same,time complete hemostasis was maintained,femoral artery; duration of the test,1 h
same,hemostasis in limb wounds,[6]; between 1% to 100% peptide applied,hemostasis was achieved in all cases
same,concentration of material needed to bring about hemostasis,[6]; when an artery or vein was transected,≥ 2%
same,shrinkage of the wound site versus untreated,[7]; all cases,happened faster
same,healing of treated wounds versus no treatment,"[7]; single application, contraction of the wound site as early as day 1",healed much faster
same,speeding of healing,"[7]; single application, in some cases",≤ 5 days
same,time to complete hemostasis after application of the peptide solution,[8],≤ 10 s
